This data set in a line: gradient 5% acetonitrile 3 min, to 50% in 2 min, to 85% in 15 min, held 3 min, 100 µL/min. As to conditions: column: Zorbax Extend-C18 2.1 x 50 mm; eluents: water / acetonitrile, 0.1% formic acid. The procedure, abridged:
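Values are retention times taken from adduct peaks that software picked and an analyst inspected. The pure standards were run as mixtures of ~100 molecules on HPLC linked to a quadrupole time-of-flight mass spectrometer, in positive and negative ionization mode. A Zorbax Extend-C18 column (2.1 × 50 mm, 1.8 μm) was used at 100 μL/min with water and acetonitrile, each including 0.1% formic acid.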
The compound `CCN1C(=O)c2ccccc2Oc2ccc(C(=O)N3CCN(c4cccc(C)c4)C(C)C3)cc21` (stereo unspecified) yielded an RP-LC retention time of 1020 s. Under `Cc1ccc(C)c(Cn2nc3c(S(=O)(=O)N4CCN(c5ccc(F)cc5)CC4)cccn3c2=O)c1` stands 1050 s; under `COC1C(=O)N(CC2CC2)C12CCN(Cc1ccc(F)c(F)c1)CC2` (stereo unspecified), 623 s; under `CCCCOc1ccc(-c2nc(C3CC(=O)N(c4ccc(OC)c(OC)c4)C3)no2)cc1` (stereo unspecified), 1120 s. In turn, `O=C1C(N2CCCN(S(=O)(=O)c3cc(F)cc(F)c3)CC2)CCN1CC1CC1` (stereo unspecified) had an RP-LC retention time of 661 s. Compound `Cn1cc(CC(=O)NCc2nc(-c3ccccc3)no2)c2ccccc21` came in with an RP-LC retention time of 837 s. The result for `CC(C)S(=O)(=O)c1cc2c(cc1NC(=O)c1ccccc1F)n(C)c(=O)n2C` reads 799 s; that for `CCc1ccc(S(=O)(=O)Nc2cc(-n3c(C)nc4ccccc4c3=O)ccc2F)s1`, 797 s. The result for `CCn1cc(-c2ccc(Cl)cc2)cc1C(=O)NCCN1CCOCC1` reads 705 s. On to `CCCN(CCC)c1nc(-c2ccccc2F)nc2ccccc12`, for which the RP-LC retention time turned out to be 814 s. The result for `CCC(C)N(CC(=O)N(Cc1ccco1)CC1CCCO1)C(=O)c1ccccc1OC` (stereo unspecified) reads 805 s; that for `Cc1noc(-c2ccc(OC3CN(C(=O)NCc4ccccc4)C3)cc2)n1`, 836 s. The result for `N#CCc1ccc(NC(=O)C2CCCN(S(=O)(=O)Cc3ccc(Cl)cc3)C2)cc1` (stereo unspecified) reads 905 s; that for `Cc1ccc(-c2nnc(SCC(=O)Nc3cc(C)ccc3C)o2)cc1`, 802 s; that for `CCN1CCN(c2nc(F)c3c(c2F)S(=O)(=O)CCN3C2CCCCC2)CC1`, 700 s. For `COCc1cc(=O)n(CC(=O)Nc2cccc(Cl)c2)c(N2CCOCC2)n1`, the RP-LC retention time worked out at 884 s.

In turn, `O=C1CC(c2nc(-c3ccc4c(c3)OCO4)no2)CN1c1cccc(Cl)c1` (stereo unspecified) had an RP-LC retention time of 999 s. The result for `O=C(c1cccnc1)N1CCN(c2cc(-c3cccs3)[nH]n2)CC1` reads 616 s; that for `COc1ccc(-c2noc(-c3nn(-c4ccc(Cl)cc4)ccc3=O)n2)cc1`, 877 s. The result for `CC(C)N1CC2(CCN(S(=O)(=O)c3ccccc3)CC2)C1c1ccccc1` (stereo unspecified) reads 690 s; that for `COc1cccc(NC(=O)Cn2c(=O)cc(-c3nc(C(C)C)no3)c3ccccc32)c1`, 982 s; that for `COc1ccc(NC(=O)N2CCC(c3nc(C(=O)N(C)C)c(C)o3)CC2)cc1Cl`, 840 s. The result for `CC1(C(=O)NCc2ccc(F)cc2)CCN(C(=O)Nc2ccc3c(c2)OCCO3)CC1` reads 653 s. The compound `CN(C)c1cc(N2CCCC(NC(=O)c3ccccn3)C2)ncn1` (stereo unspecified) returned an RP-LC retention time of 559 s. The result for `O=C(CCSc1ccccc1)Nc1cc(-c2cccs2)nn1CCO` reads 793 s; that for `CCCN(C(=O)c1cccc(F)c1)c1nc(-c2ccccc2)cs1`, 1310 s. In turn, `CCN1C(=O)CCc2cc(NS(=O)(=O)c3ccc(C(F)(F)F)cc3)ccc21` had an RP-LC retention time of 858 s. Under `CCOc1ccccc1NC(=O)CSc1cc(N2CCN(c3ccc(OC)cc3)CC2)ncn1` stands 1090 s; under `Cc1ccc(CNCCSc2nnnn2C)s1`, 580 s. Under `Cc1ccccc1Nc1c(-c2ccccc2O)nc2ccccn12` stands 701 s; under `COc1ccc(Cn2nc3ccc(S(=O)(=O)N4CCC(C)CC4)cn3c2=O)cc1F`, 1340 s. The result for `CC(=O)c1cccc(NC(=O)CN(C)c2nc3c(F)cccc3s2)c1` reads 798 s; that for `CCCCC(=O)Nc1cc(C(=O)O)ccc1N(C)CCc1c(C)nn(C)c1C`, 596 s; that for `O=C([C@@H]1C[C@H](Oc2cccnc2)CN1C(=O)c1ccco1)N1CCCC1`, 553 s.

`Cc1ccc(S(=O)(=O)N2CCCC(Cn3c(C4CC4)nc4cccnc43)C2)cc1F` (stereo unspecified) gave an RP-LC retention time of 819 s. Under `O=C(NC1CCCCC1)C1CCCN(C(=O)c2ccc(Cl)cc2)C1` (stereo unspecified) stands 855 s; under `Cc1noc(COC2CCN(C(=O)Cc3c[nH]c4ccccc34)CC2)n1`, 724 s; under `COc1ccc(OC)c(NC(=O)C(=O)c2c(C)n(C)c3ccccc23)c1`, 990 s. Under `O=C(NCCn1c(=O)n(Cc2ccc(F)cc2)c2cccnc21)c1ccoc1` stands 745 s; under `CC1CCCCN1CCNC(=O)CCCn1c(=O)c2cccn2c2ccccc21` (stereo unspecified), 621 s. Under `Cc1nnc(SCC2=C(C(=O)O)N3C(=O)C(NC(=O)Cn4cnnn4)C3SC2)s1` (stereo unspecified) stands 641 s.

`O=c1oc2cc(O)c(Cl)cc2c2ccccc12`: the RP-LC retention time was found to be 847 s. Under `CN1C(=O)CCc2cc(NC(=O)c3ccncc3)ccc21` stands 579 s; under `CCNc1nc(C)cc(N2CCN(C(=O)Nc3cc(C)cc(C)c3)CC2)n1`, 702 s; under `CNC(=O)c1sc2nc(-c3cccc(F)c3)c(NCCCOC)n2c1C`, 777 s.

In the case of `COc1cc(C2CC(=O)c3c(C)nc(N4CCN(c5ccccn5)CC4)nc3C2)cc(OC)c1OC` (stereo unspecified), the RP-LC retention time stood at 678 s. The result for `CCOc1cc(C(=O)N2CCCC2c2nc(-c3ccc(C)cc3)no2)cc(OCC)c1OCC` (stereo unspecified) reads 1200 s; that for `O=C(c1n[nH]c2c1CCCC2)N1CCCCC1`, 695 s; that for `COc1ccc(-c2cc3n(n2)C(NCc2cccs2)CNC3=O)cc1` (stereo unspecified), 825 s. Under `CCNC(=O)c1cc(C)nc2ccc(C)cc12` stands 568 s; under `CC(C)Cn1c(=O)c2cc(C(=O)NCc3ccncc3)nn2c2ccccc21`, 657 s. The result for `CCCn1cc(S(=O)(=O)Nc2ccc(Cl)cc2)c2cccnc21` reads 942 s; that for `COc1ccc(-n2ncc3c(=O)n(Cc4nc(-c5cccc(C)c5)no4)cnc32)cc1`, 1050 s. In turn, `Cc1cccc(Nc2c(-c3ccc(Br)cc3)nc3cnccn23)c1C` showed an RP-LC retention time of 1140 s. Under `Cc1cccc(-c2noc(-c3ccc(N4CCN(c5ncccn5)CC4)nc3)n2)c1` stands 1310 s; under `COc1ccc(N2CCN(c3ccc(-c4nc(-c5ccccc5)no4)cn3)CC2)cc1`, 1240 s.

As to `O=C(Cn1c(=O)oc2ccccc21)Nc1nc(-c2ccc(Br)cc2)cs1`, the RP-LC retention time was 1050 s.

The compound `CC(C)N1CCn2cc(S(=O)(=O)Nc3cccc(F)c3)cc2C1=O` returned an RP-LC retention time of 751 s. The result for `CCc1ccc(N2CC(c3nc(-c4ccc(OC)cc4OC)no3)CC2=O)cc1` (stereo unspecified) reads 998 s; that for `Cc1nnc(-c2ccc3ccn(CC(=O)NCCC(C)C)c3c2)o1`, 754 s; that for `COC(=O)c1cc2ccsc2n1CC(=O)Nc1ccc(F)c(Cl)c1`, 1010 s.

In turn, `Cn1nc(-c2nc(C3CC3)no2)c2c1CCN(C(=O)c1ccc(C(C)(C)C)cc1)C2` returned an RP-LC retention time of 1290 s. The result for `COc1ccc(-c2nn3c(-c4ccccc4F)nnc3s2)cc1` reads 935 s; that for `CCn1cnc(S(=O)(=O)N2CCC(C(=O)Nc3cc(C)ccc3OC)CC2)c1`, 674 s.

The compound `CCOc1ccc(CNC(=O)C2CCCN2S(=O)(=O)c2cc3c(cc2Cl)NC(=O)CO3)cc1` (stereo unspecified) displayed an RP-LC retention time of 760 s.

In turn, `CN1C(=O)c2cccn2CC1C(=O)NCC1CC1` (stereo unspecified) yielded an RP-LC retention time of 608 s.

Take `O=C(Nc1ccc(C(=O)N2CCC(C(=O)NC3CCCCCC3)CC2)cc1)c1ccccc1Cl`: the RP-LC retention time is 839 s.

For `CN(C)CC[C@@H](c1ccc(Cl)cc1)c1ccccn1`, the RP-LC retention time was determined as 659 s. On to `CCOC(=O)c1ccc(NC2=NS(=O)(=O)C(c3ccc(OC)cc3)=C2C)cc1`, for which the RP-LC retention time came out at 928 s. The result for `COc1ccc2c(c1)sc1ncc(C(=O)N3CCN(c4ccccn4)CC3)c(=O)n12` reads 589 s. The result for `Cc1nc([C@@H]2CCCN2C(=O)CCc2ccccc2)n[nH]1` reads 634 s. Under `Cc1ccc2[nH]c3c(c2c1)CCNC31C(=O)Nc2ccccc21` (stereo unspecified) stands 643 s; under `COc1ccc(CNC(=O)Cn2nc3c4ccccc4ncn3c2=O)cc1`, 651 s; under `CN1C(=O)CCC2(CNC(=O)NCCc3ccccc3)CCCC=C12` (stereo unspecified), 763 s. Compound `CCn1cnc(S(=O)(=O)N2CCC(C(=O)Nc3ccc4c(c3)OCO4)CC2)c1` yielded an RP-LC retention time of 688 s. The result for `c1ccc(-c2noc(C3CNC3)n2)cc1` reads 557 s; that for `Cc1cc(N2CCCC2)n2nc(CN3CCCCC3C)nc2n1` (stereo unspecified), 566 s. Under `CCn1cnc(S(=O)(=O)N2CCC(C(=O)N3CCN(c4ccccc4F)CC3)CC2)c1` stands 762 s.

`Cc1cccc(NC(=O)Cn2ccc3ccn(C)c3c2=O)c1` gave an RP-LC retention time of 772 s. As to `O=C(NCc1cccs1)NCC1CC(=O)N(Cc2ccc(F)cc2)C1` (stereo unspecified), the RP-LC retention time is 656 s.

`COc1ccc(F)cc1S(=O)(=O)NC1CCc2nnc(C3CC3)n2CC1` (stereo unspecified) returned an RP-LC retention time of 641 s.

For the origin of these results see the METLIN SMRT retention time set (Domingo-Almenara et al. 2019).
